% of control, IC50 and % of inhibition data for six compounds are collected here from ChEMBL document CHEMBL5465560, “Selectivity Literature for EUbOPEN Chemogenomic Library” (2024).

The target in assay [1] is Dual specificity protein kinase CLK4 (Homo sapiens, UniProt Q9HAZ1). Briefly: Selectivity interaction (KinomeScan (DiscoverX)) EUB0001619a CLK4. Conditions: at 1 µM.
Another assay has as its target Aurora kinase B (Homo sapiens, UniProt Q96GD4). Briefly: Selectivity interaction (Enyzmatic assay) EUB0000601a AURKB.
Assay [2] has as its target T1, Serine/threonine-protein kinase TAO3 (Homo sapiens) (UniProt Q9H2K8).
T1 sequence (whole entry): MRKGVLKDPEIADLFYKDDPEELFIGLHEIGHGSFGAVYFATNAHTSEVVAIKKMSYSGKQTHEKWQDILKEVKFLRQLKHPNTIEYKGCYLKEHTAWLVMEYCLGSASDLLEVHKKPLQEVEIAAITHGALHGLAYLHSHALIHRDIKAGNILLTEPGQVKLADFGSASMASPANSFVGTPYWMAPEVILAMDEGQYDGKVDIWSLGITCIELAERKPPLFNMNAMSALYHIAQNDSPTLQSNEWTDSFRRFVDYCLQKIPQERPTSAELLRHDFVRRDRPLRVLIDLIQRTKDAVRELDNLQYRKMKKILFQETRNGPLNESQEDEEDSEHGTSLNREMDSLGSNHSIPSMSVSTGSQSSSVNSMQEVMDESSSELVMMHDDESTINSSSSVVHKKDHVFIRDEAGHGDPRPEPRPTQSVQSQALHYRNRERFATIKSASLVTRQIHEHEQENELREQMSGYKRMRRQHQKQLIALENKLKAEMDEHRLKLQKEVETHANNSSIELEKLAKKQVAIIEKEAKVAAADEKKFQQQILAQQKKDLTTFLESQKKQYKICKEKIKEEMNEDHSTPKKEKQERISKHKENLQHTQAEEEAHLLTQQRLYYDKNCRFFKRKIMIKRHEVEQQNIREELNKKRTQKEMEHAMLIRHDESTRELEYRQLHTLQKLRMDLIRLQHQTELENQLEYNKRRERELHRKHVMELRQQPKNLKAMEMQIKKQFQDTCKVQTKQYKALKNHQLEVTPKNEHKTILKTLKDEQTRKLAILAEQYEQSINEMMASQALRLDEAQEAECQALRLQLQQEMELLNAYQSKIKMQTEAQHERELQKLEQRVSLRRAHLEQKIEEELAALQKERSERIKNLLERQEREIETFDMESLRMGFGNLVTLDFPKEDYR
Briefly: Selectivity interaction (Kinase panel (Invitrogen)) EUB0000639a TAOK3. The note with it: at 200 nM.

Assay [3] concerns the target Receptor-type tyrosine-protein kinase FLT3 (Homo sapiens) (UniProt P36888). Briefly: Selectivity interaction (ProQinase) EUB0000171b FLT3. The note with it: at 1 µM.
Assay [4] deals with T2, Ephrin type-B receptor 1 (Homo sapiens) (UniProt P54762).
T2 sequence (whole entry): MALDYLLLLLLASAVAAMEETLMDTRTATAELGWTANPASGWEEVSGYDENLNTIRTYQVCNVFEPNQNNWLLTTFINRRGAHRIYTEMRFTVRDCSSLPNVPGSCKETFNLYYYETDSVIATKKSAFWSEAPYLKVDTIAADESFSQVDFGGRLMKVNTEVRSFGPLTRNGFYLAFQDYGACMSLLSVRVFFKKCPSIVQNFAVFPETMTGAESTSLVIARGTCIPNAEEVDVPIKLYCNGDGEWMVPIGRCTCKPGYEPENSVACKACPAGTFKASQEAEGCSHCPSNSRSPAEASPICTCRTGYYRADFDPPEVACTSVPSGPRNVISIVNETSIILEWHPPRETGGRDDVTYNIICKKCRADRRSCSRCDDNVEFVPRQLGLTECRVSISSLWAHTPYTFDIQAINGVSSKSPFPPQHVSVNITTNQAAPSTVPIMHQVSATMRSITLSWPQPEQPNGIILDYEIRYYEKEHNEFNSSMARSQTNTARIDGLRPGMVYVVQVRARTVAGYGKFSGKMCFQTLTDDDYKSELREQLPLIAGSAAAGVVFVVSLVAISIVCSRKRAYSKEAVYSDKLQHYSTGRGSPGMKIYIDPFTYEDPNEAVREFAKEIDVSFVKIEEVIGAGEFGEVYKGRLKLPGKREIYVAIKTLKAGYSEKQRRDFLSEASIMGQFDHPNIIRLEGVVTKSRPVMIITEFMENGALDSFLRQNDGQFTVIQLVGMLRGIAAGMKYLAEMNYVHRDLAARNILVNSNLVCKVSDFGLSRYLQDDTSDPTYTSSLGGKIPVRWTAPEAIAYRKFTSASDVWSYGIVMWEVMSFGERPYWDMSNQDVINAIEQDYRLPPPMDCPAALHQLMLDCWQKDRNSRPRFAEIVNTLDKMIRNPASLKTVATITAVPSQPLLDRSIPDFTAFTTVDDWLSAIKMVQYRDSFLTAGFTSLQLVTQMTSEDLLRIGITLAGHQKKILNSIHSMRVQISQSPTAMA
Briefly: Selectivity interaction (KinomeScan (DiscoverX)) EUB0001049a EPHB1. Conditions: at 1 µM.

In assay [5] the test system is eIF-2-alpha kinase GCN2 (Homo sapiens), Q9P2K8 [S808G]. Briefly: Selectivity interaction (KinomeScan (DiscoverX)) EUB0001079a EIF2AK4. The note with it: at 1 µM.
eIF-2-alpha kinase GCN2 (Homo sapiens), Q9P2K8 [S808G], sequence (Q9P2K8 whole entry S808G): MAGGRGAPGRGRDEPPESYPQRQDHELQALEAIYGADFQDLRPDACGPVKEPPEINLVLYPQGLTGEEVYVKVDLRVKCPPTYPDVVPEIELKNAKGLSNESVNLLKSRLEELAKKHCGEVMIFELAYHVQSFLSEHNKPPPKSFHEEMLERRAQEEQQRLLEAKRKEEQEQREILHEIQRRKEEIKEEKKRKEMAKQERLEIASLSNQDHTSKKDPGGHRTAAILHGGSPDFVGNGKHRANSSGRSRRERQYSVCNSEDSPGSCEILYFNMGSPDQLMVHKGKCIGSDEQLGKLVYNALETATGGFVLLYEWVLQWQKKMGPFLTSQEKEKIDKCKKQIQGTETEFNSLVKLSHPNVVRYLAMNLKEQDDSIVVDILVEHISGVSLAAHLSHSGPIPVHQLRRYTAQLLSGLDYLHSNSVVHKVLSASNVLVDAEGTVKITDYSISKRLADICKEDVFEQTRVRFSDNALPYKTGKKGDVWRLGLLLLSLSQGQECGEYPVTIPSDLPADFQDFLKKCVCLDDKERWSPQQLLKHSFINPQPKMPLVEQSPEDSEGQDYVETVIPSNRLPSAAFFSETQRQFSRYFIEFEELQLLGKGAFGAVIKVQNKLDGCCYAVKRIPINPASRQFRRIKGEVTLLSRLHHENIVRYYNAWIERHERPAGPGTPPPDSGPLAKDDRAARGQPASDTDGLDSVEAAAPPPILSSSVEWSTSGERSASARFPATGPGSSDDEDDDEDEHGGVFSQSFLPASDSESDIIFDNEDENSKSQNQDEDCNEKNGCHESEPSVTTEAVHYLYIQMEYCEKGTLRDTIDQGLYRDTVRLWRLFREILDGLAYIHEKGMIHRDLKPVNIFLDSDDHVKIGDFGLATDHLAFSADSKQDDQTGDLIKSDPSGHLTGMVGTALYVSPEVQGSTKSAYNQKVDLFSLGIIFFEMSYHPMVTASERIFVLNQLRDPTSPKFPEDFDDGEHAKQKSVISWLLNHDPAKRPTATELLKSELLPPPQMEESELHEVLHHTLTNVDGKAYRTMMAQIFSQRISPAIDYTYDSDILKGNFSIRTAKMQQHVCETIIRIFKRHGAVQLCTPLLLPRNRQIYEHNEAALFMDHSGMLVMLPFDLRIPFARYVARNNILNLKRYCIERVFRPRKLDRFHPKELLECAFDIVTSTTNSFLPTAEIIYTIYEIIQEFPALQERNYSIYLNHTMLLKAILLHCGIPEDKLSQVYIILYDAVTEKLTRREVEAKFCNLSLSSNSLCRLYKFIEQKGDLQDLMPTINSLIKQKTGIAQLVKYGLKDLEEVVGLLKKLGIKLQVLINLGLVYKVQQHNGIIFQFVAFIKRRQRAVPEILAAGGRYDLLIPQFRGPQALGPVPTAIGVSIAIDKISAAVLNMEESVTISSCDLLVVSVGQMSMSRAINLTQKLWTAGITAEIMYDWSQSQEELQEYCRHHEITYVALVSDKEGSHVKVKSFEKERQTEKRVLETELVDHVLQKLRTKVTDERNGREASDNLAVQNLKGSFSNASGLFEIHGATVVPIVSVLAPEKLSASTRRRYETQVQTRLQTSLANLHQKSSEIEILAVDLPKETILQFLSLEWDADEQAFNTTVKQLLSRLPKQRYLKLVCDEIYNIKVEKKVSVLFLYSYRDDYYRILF

pIC50: −log10 of the molar value. Some results are limits rather than exact numbers.

Receptor-type tyrosine-protein kinase FLT3 (Homo sapiens), sequence (P36888 whole entry): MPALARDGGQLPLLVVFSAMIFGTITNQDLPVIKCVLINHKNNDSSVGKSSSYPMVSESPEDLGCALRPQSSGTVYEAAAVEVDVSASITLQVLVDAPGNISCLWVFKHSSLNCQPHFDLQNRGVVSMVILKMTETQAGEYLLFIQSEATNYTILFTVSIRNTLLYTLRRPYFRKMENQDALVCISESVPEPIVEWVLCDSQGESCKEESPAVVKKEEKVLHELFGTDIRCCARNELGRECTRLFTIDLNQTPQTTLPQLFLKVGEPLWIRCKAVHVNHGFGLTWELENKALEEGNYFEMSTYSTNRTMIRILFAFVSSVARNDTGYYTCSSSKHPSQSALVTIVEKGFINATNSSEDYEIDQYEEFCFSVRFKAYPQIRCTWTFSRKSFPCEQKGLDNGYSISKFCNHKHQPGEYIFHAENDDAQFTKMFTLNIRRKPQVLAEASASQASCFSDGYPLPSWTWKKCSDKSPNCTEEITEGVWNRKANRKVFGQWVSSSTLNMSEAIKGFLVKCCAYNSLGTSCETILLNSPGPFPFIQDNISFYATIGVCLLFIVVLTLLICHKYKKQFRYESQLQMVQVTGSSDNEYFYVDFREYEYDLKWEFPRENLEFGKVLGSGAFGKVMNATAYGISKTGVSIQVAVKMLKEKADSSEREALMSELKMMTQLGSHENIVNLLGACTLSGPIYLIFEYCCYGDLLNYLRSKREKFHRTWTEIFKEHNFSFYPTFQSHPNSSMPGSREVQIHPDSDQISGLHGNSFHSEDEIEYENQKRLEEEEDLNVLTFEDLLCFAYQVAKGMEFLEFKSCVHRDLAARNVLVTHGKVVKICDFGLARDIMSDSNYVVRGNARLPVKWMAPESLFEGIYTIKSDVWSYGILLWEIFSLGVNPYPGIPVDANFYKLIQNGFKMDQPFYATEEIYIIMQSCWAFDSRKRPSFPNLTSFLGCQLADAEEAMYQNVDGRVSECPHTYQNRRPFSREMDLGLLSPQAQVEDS
Dual specificity protein kinase CLK4, sequence (Q9HAZ1 whole entry, looked up): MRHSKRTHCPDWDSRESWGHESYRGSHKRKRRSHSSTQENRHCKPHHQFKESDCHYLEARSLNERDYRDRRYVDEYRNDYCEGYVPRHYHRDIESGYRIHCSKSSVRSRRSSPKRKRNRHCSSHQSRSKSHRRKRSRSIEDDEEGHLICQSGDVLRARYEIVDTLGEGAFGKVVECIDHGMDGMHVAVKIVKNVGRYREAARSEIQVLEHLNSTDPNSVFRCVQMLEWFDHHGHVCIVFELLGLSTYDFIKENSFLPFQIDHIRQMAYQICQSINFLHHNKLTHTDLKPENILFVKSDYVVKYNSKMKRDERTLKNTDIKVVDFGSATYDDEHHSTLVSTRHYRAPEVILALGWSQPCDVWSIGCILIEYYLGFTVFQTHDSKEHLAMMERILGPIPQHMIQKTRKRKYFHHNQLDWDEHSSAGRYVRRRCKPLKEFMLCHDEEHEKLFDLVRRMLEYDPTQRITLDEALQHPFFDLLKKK
Aurora kinase B, sequence (Q96GD4 whole entry): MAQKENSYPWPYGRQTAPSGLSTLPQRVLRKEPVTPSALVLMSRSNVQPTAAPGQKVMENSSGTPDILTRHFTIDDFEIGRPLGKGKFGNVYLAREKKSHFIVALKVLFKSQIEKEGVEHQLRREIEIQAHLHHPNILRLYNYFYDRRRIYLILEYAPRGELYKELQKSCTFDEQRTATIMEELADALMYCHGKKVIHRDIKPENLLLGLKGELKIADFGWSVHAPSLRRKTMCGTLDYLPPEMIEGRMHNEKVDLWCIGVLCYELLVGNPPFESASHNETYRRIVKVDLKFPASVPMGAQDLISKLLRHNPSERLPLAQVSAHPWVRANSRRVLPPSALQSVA

`N#Cc1cccc(-c2c[nH]c3ncnc(N4CCOCC4)c23)c1`: the % of control in assay [1] was determined as 38%.
As to `CCc1cc(Nc2nccc(-c3c(-c4ccc(OC)c(C(=O)Nc5c(F)cccc5F)c4)nc4ccccn34)n2)c(OC)cc1N1CCC(N2CCN(S(C)(=O)=O)CC2)CC1`, the pIC50 (commonly the IC50 on a negative log10 scale, so that one unit is a factor of ten) on Aurora kinase B was below 5.40.
Take `CC[C@@H]1[C@H](F)C(=O)N[C@@H]1COc1nccc2cc(C(N)=O)c(OC)cc12` [ZIMLOVISERTIB]: the % of inhibition in assay [2] is -1.02%.
For `C=CC(=O)Nc1cccc(C(=O)Nc2ccc(Nc3cc(-c4[nH]c(SC)nc4C)ccn3)cc2)c1`, in assay [3], the % of control came to 94%.
The compound `COc1cc(Nc2nc(C)cc(-c3cnn4nc(OC)ccc34)n2)cc(C(F)(F)F)c1` came in with a % of control in assay [4] of 85%.
For the compound `Nc1cnc(N2CCc3cc(S(=O)(=O)Nc4c(F)cc(Cl)cc4F)cc(N4CCCC4=O)c32)nc1` [TP-020n], the % of control in assay [5] is 100%.
